Among the test systems are NCI-H23 lung; RPMI-8226 leukemia; SNB-19 CNS; CAKI-1 renal; SN12C renal; LOX IMVI melanoma; SW-620 colon; OVCAR-8 ovarian; KM12 colon; RXF 393 renal.
Holding throughout (test): NCI anticancer screen, dose series, 48 h

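All cell lines were grown in 96-well plates and treated with compound for 48 hours. GI50 marks 50% less growth. At the TGI there is no net growth.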

`CC(C)C1(O)C(c2ccccc2)=C(c2ccccc2)C(c2ccccc2)=C1c1ccccc1`: the TGI was 91.3 µM in the test on NCI-H23 lung; 5.26 µM with RPMI-8226 leukemia; greater than 100 µM in the test on SNB-19 CNS; greater than 100 µM in the test on CAKI-1 renal; 41.6 µM with SN12C renal; 20 µM with LOX IMVI melanoma. For the same compound, the TGI in the test with SW-620 colon is greater than 100 µM; in the test with OVCAR-8 ovarian it was greater than 100 µM; in the test on KM12 colon, 17.9 µM; in the test with RXF 393 renal, 13.3 µM.
On to `FC(F)(F)c1cc(-c2nnc3n2N=C(N2CCCC2)CS3)cc(C(F)(F)F)c1`, for which the GI50 is greater than 50 µM with NCI-H23 lung; greater than 50 µM in the test on RPMI-8226 leukemia; 30.2 µM with SNB-19 CNS; greater than 50 µM in the test on CAKI-1 renal; greater than 50 µM in the test on SN12C renal; greater than 50 µM with LOX IMVI melanoma. Besides, the GI50 is greater than 50 µM with SW-620 colon, 32.9 µM with OVCAR-8 ovarian, greater than 50 µM in the test with KM12 colon and 26.6 µM in the test with RXF 393 renal. Also, the TGI in the test on NCI-H23 lung, in the test with RPMI-8226 leukemia, in the test with SNB-19 CNS, in the test with CAKI-1 renal, in the test with SN12C renal and with LOX IMVI melanoma was greater than 50 µM each time. For the same compound, the TGI in the test on SW-620 colon, with OVCAR-8 ovarian, in the test on KM12 colon and in the test on RXF 393 renal was greater than 50 µM in each case.

(Values after PubChem BioAssay (NCI).)
